Data taken from paper PMC13303826, “Nicotinonitrile based dual inhibitors of tubulin and topoisomerase II exhibit potent anticancer activity” (Scientific Reports, 2026).
Like-named read-outs stand apart in the source and are kept apart here.

Columns and labels:
HepG2 cells = experiment: LDH release cytotoxicity assay, HepG2; format: cell-based; conditions: Homo sapiens, 48 h, mean ± SD, read-out: In vitro cytotoxicity IC50 µM ± SD, HepG2
Protocol: (§1) HepG2 (Human liver carcinoma), HCT116 (human colorectal carcinoma), MCF7 (human breast adenocarcinoma), and the normal human skin fibroblast (BJ-1) cell lines were purchased from the american type culture collection (Rockville, MD, USA) and maintained in RPMI-1640 medium which was supplemented with 10% heat-inactivated FBS, 100U/ml penicillin and 100U/ml streptomycin. The cells were grown at 37 °C in a humidified atmosphere of 5% CO2. All experiments were conducted thrice in triplicate (n = 3). All the values were represented as means ± SD. Significant differences between the means of parameters as well as IC50s were determined by probit analysis using SPSS software program (SPSS Inc., Chicago, IL).
(§2) To determine the effect of each synthesized compound on membrane permeability in HepG2, MCF-7 and HCT116 cancer cell lines as well as BJ-1 normal cell line, a lactate dehydrogenase (LDH) release assay was used[29]–[33]. The cells were seeded in 24-well culture plates at a density of 1 × 10^4 cells/well in 500 µL volume and allowed to grow for 18 h before treatment. After treatment with a series of different concentrations of each compound or DOX (positive control), the plates were incubated for 48 h. Then, the supernatant (40 µL) was transferred to a new 96 well to determine LDH release and 6% triton X-100 (40 µL) was added to the original plate for determination of total LDH. An aliquot of 0.1 M potassium phosphate buffer (100 µL, pH 7.5) containing 4.6 mM pyruvic acid was mixed to the supernatant using repeated pipetting. Then, 0.1 M potassium phosphate buffer (100 µL, pH 7.5) containing 0.4 mg/mL reduced β-NADH was added to the wells. The kinetic changes were read for 1 min using ELISA microplate reader in absorbance at wavelength 340 nm. This procedure was repeated with 40 µL of the total cell lysate to determine total LDH. The percentage of LDH release was determined by dividing the LDH released into the media by the total LDH following cell lysis in the same well. The cell Passage numbers for MCF 7 = P13, Hep G2 = P15, HCT 116 = P 9.
(§3) All experiments were conducted in triplicate (n = 3). All the values were represented as mean ± SD. Significant differences between the means of parameters as well as IC50s were determined by probit analysis using SPSS software program (SPSS Inc., Chicago, IL).

MCF7 cells [1] = experiment: LDH release cytotoxicity assay, MCF7; format: cell-based; conditions: Homo sapiens, 48 h, mean ± SD, read-out: In vitro cytotoxicity IC50 µM ± SD, MCF7
Protocol: as §1, §2, §3

BJ1 normal cells = experiment: LDH release cytotoxicity assay, normal skin fibroblasts BJ1; format: cell-based, human; conditions: non-tumor BJ1 fibroblasts
Protocol: as §1, §2, §3

beta-tubulin = experiment: Inhibition of tubulin polymerization in MCF-7 cells (beta-tubulin SimpleStep ELISA); format: cell-based, human; conditions: MCF7 cells, concentration not given
From the text: Beta-tubulin in vitro simple step ELISA® (Enzyme-Linked Immunosorbent Assay) kit is designed for quantitative measurement of beta-tubulin protein in human cell and tissue homogenate extract samples.
The SimpleStep ELISA® employs an affinity tag labeled capture antibody and a reporter conjugated detector antibody which immunocapture the sample analyte in solution. This entire complex (capture antibody/analyte/detector antibody) is in turn immobilized via immunoaffinity of an anti-tag antibody coating the well. To perform the assay, samples or standards are added to the wells, followed by the antibody mix. After incubation, the wells are washed to remove unbound material. TMB development solution is added and during incubation is catalyzed by horseradish peroxidase (HRP), generating blue coloration. This reaction is then stopped by addition of stop solution completing any color change from blue to yellow. Signal is generated proportionally to the amount of bound analyte and the intensity is measured at 450 nm. Optionally, instead of the endpoint reading, development of TMB can be recorded kinetically at 600 nm. The concentration of beta-tubulin protein in the samples is determined by comparing the optical density (OD) of the samples to the standard curve. Each experiment was repeated two times (Table 2).

HCT116 cells = experiment: LDH release cytotoxicity assay, HCT116; format: cell-based; conditions: Homo sapiens, HCT-116, 48 h, mean ± SD, read-out: In vitro cytotoxicity IC50 µM ± SD, HCT116
Protocol: as §1, §2, §3

MDA-MB-231 = tested on: MDA-MB-231; parameters: method as in ref 5, 7 (CA-4), ref 13-15 (VII); conditions: Fig. 1; 7 (CA-4), ref 13-15 (VII); cited from earlier work
HeLa = conditions: Fig. 1, cited from earlier work
Topo II = experiment: Inhibition of topoisomerase II in MCF-7 cells (TOP2B sandwich ELISA); format: cell-based, human; conditions: MCF7 cells, concentration not given
Protocol: Mouse TOP2B/Topoisomerase II Beta ELISAKit (Sandwich ELISA) is designed for the quantitative measurement of Topo II enzyme.
This assay is based on the sandwich ELISA principle. Each well of the supplied microtiter plate has been pre-coated with a target specific capture antibody. Standards or samples are added to the wells, and the target antigen binds to the capture antibody. Unbound standard or sample is washed away. A biotin-conjugated detection antibody is then added which binds to the captured antigen. Unbound detection antibody is washed away. An avidin-horseradish peroxidase (HRP) conjugate is then added which binds to the biotin. Unbound avidin-HRP conjugate is washed away. A TMB substrate is then added which reacts with the HRP enzyme resulting in color development. A sulfuric acid stop solution is added to terminate color development reaction and then the optical density (OD) of the well is measured at a wavelength of 450 nm ± 2 nm. An OD standard curve is generated using known antigen concentrations; the OD of an unknown sample can then be compared to the standard curve to determine its antigen concentration. Each experiment was repeated two times (Table 3).

MCF7 cells [2] = experiment: Apoptosis and necrosis analysis by annexin V-FITC/PI staining; format: cell-based, human; conditions: at IC50 (2.4 µM), 48 h
From the text: Annexin V apoptosis detection kit is used for analyzing apoptosis and necrosis for active compounds 20 and 26 in MCF7 cells using annexin V-FITC/PI dual staining followed by flow cytometry quantification and fluorescence microscopy detection.
Detection is based on the observation that soon after initiating apoptosis, cells translocate the membrane phosphatidylserine (PS) from the inner face of the plasma membrane to the cell surface. Once on the cell surface, PS can be easily detected by staining with a fluorescent conjugate of annexin V, a protein that has a high affinity for PS. Detection can be analyzed by flow cytometry or/and by fluorescence microscopy. The kit can differentiate between apoptosis and necrosis when performing both annexin V-FITC and PI staining. Assay is summarized as first, induce apoptosis by desired method, collect 1–5 × 10^5 cells by centrifugation, resuspend cells in 500 µl of 1× binding buffer, add 5 µl of annexin V-FITC and 5 µl of propidium iodide and finally incubate at room temperature for 5 min in the dark. After that, analyze annexin V-FITC binding by flow cytometry (Ex = 488 nm; Em = 530 nm) using FITC signal detector (usually FL1) and PI staining by the phycoerythrin emission signal detector (usually FL2) then, observe the cells under a fluorescence microscope using a dual filter set for FITC & rhodamine. Cells that have bound annexin V-FITC will show green staining in the plasma membrane. Cells that have lost membrane integrity will show red staining (PI) throughout the nucleus and a halo of green staining (FITC) on the cell surface.

MCF7 cells [3] = experiment: Propidium iodide flow cytometry cell cycle analysis; format: cell-based, human; conditions: compound at 2.4 µM
Protocol: Propidium iodide flow cytometry kit (ab139418) is designed for quantitative DNA content analysis in tissue culture cells, so we performed propidium iodide cell cycle analysis for active compounds 20 and 26 using MCF-7 cell line. Propidium iodide staining of DNA is the classic means of cell cycle analysis. The staining procedure takes less than 1 h of total processing time and cells fixed in ethanol are stable for at least several weeks at 4 °C.
Propidium iodide is a fluorescent molecule that binds nucleic acid with little or no sequence preference. Because propidium iodide binds RNA as well as DNA, RNaseA (ribonuclease A) is included in this kit to digest cellular RNA and thus decrease background RNA staining from the experiment. Since propidium iodide is membrane impermeant, ethanol is used to both fix and permeabilize cells. A flow cytometer is required for quantitative analysis. First, fix MCF-7 cells in 66% ethanol, store at + 4 °C for 2 h to 4 weeks and rehydrate cells in PBS. Finally, stain cells with propidium iodide then add RNase for 30 min. Collect propidium iodide fluorescence intensity on FL2 of a flow cytometer and […] laser excitation. A useful way to display propidium iodide data is on a histogram with the cell count on the y-axis and the propidium iodide fluorescence intensity on the x-axis.

HL-60 = tested on: HL-60; parameters: method as in ref 4, 12 (YCH337), ref 13-15 (VIII); conditions: Fig. 1; 12 (YCH337), ref 13-15 (VIII); cited from earlier work

Compound	IC50 (HepG2 cells) [µM]	IC50 (MCF7 cells [1]) [µM]	Cytotoxicity / selectivity toward BJ1 normal cells (in words) (BJ1 normal cells)	tubulin polymerization % inhibition (beta-tubulin) [%]	IC50 (HCT116 cells) [µM]	Topo II % inhibition (Topo II) [%]	further results
Cc1cc(-c2ccco2)c(C#N)c(N=P(c2ccccc2)(c2ccccc2)c2ccccc2)n1 [Compound 41, 4-(Furan-2-yl)-6-methyl-2-((triphenyl-λ^5-phosphaneylidene)amino)nicotinonitrile]	27.3 ± 2.3	2.4 ± 0.1	good selectivity	61.2	38.2 ± 2.8		
COc1ccc(/C=C\c2cc(OC)c(OC)c(OC)c2)cc1O [CA4, Combretastatin A4]				72.1			IC50 (MDA-MB-231): 0.0028 µM; IC50 (HeLa; 7 (CA-4), ref 13-15 (VII)): 0.001 µM
COc1ccc(-c2cc(-c3cc(OC)cc(OC)c3)c(C#N)c(N=P(c3ccccc3)(c3ccccc3)c3ccccc3)n2)cc1 [Compound 38, 4-(3,5-Dimethoxyphenyl)-6-(4-methoxyphenyl)-2-((triphenyl-λ^5-phosphaneylidene)amino)-nicotinonitrile]	12.2 ± 1.1	2.5 ± 0.1	good selectivity	71.7	31.5 ± 3.2		
COc1ccc(-c2cc(-c3ccc(OC)c(OC)c3)nc(N=P(c3ccccc3)(c3ccccc3)c3ccccc3)c2C#N)cc1 [Compound 39, 6-(3,4-Dimethoxyphenyl)-4-(4-methoxyphenyl)-2-((triphenyl-λ^5-phosphaneylidene)amino)-nicotinonitrile]	12.6 ± 1.1	3 ± 0.1	good selectivity		32.5 ± 3.2		
COc1cc(-c2cc(-c3cc(OC)c(OC)c(OC)c3)c(C#N)c(Cl)n2)cc(OC)c1OC [Compound 20, 2-Chloro-4,6-bis(3,4,5-trimethoxyphenyl)nicotinonitrile]	6.1 ± 0.5	2.4 ± 0.1	good selectivity	74.7	34.4 ± 3.2	70.3	Apoptosis Early (MCF7 cells [2]): 11.91%; Apoptosis Late (MCF7 cells [2]): 22.63%; Apoptosis Total (MCF7 cells [2]): 38.41%; Necrosis (MCF7 cells [2]): 3.87%; %G0-G1 (MCF7 cells [3]): 39.69%; %G2/M (MCF7 cells [3]): 43.3%; %S (MCF7 cells [3]): 17.01%
COc1ccc(-c2cc(-c3cc(OC)c(OC)c(OC)c3)c(C#N)c3nnnn23)cc1 [Compound 26, 5-(4-methoxyphenyl)-7-(3,4,5-trimethoxyphenyl)tetrazolo[1,5-a]pyridine-8-carbonitrile]	6.3 ± 0.3	2.4 ± 0.1	good selectivity	75	63.4 ± 5.3	43.7	Apoptosis Early (MCF7 cells [2]): 7.58%; Apoptosis Late (MCF7 cells [2]): 28.16%; Apoptosis Total (MCF7 cells [2]): 41.26%; Necrosis (MCF7 cells [2]): 5.51%; %G0-G1 (MCF7 cells [3]): 35.64%; %G2/M (MCF7 cells [3]): 50.69%; %S (MCF7 cells [3]): 13.67%
COc1ccc(-c2cccc(-c3ccc(OC)cc3OC)n2)cc1 [VII]							IC50 (MDA-MB-231): 0.0031 µM; IC50 (HeLa; 7 (CA-4), ref 13-15 (VII)): 0.0038 µM
COc1ccc(O)c(C(=O)c2cnc3[nH]c4ccccc4c3c2)c1 [YCH337]							IC50 (HL-60): 0.21 µM; IC50 (HeLa; ref 10 (etoposide), 12 (YCH337)): 0.06 µM
COc1cc(OC)cc(-c2cc(-c3ccc(OC)c(OC)c3)nc(N=P(c3ccccc3)(c3ccccc3)c3ccccc3)c2C#N)c1 [Compound 37, 6-(3,4-Dimethoxyphenyl)-4-(3,5-dimethoxyphenyl)-2-((triphenyl-λ^5-phosphaneylidene)amino)-nicotinonitrile]	29.3 ± 2.5	2.6 ± 0.1		74.3	36 ± 3.3	82.4	
